Data published in patent US20060287347A1, “Methods for treating smooth muscle disorders using trospium” (priority 2005, published 2006).
Like-named read-outs stand apart in the source and are kept apart here.

Key:
[1] = target: T1, human recombinant muscarinic receptor M-4 (Homo sapiens, UniProt P08173); assay: Ligand binding, affinity for muscarinic receptors (M-4); conditions: membranes from SF9 cells, radioligand 3H scopolamine methylchloride; read-out: Affinity (negative logarithm of the dissociation constant Ki), M-4 (converted)
T1 sequence (P08173 1-479): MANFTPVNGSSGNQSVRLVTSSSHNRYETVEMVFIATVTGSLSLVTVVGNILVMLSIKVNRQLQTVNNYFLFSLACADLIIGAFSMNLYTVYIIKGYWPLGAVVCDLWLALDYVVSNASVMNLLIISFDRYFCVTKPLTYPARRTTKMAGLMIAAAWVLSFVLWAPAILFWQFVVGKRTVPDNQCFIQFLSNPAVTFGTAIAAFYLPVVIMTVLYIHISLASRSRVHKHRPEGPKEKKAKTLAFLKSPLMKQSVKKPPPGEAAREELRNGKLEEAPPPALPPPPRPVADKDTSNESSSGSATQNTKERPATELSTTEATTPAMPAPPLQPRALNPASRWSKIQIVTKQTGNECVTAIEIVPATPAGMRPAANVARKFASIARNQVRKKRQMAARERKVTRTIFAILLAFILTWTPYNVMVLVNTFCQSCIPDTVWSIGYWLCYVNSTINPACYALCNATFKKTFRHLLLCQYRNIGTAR
Procedure: The experiments were carried out on membranes prepared from SF9 cells that expressed human recombinant muscarinic receptor subtypes. After incubation with the test article and the proper radioligand (^3H scopolamine methylchloride) and washing, bound radioactivity was determined with a liquid scintillation counter, using a commercial scintillation cocktail. The specific radioligand binding to a muscarinic receptor was defined as the difference between total binding and nonspecific binding determined in the presence of an excess of unlabelled atropine.

[2] = system: carbachol-induced contractions of urinary bladder strips; assay: Antimuscarinic activity on bladder smooth muscle strips (carbachol-induced contractions); assay type: cell-based, guinea pig; conditions: Cavia porcellus, read-out: KB, inhibition of carbachol-induced contractions
Procedure: • Experiments have now been performed using methods described by Kachur et al, 1988, J Pharmacol Exp Ther 247: 867-872) and Noronha-Blob et al. J Pharmacol Exp Ther 256: 562-567). Strips of tissue (approximately 10 mm long and 1.5 mm wide) were removed from the urinary bladder of male guinea pigs. The tissues were suspended in an oxygenated buffer of the following composition, in mM: NaCl 133; KCl 4.7; CaCl2 2.5; MgSO4 0.6; […] The smooth muscle strips were maintained at or about 37.5° C. in tissue chambers and allowed to equilibrate with the bathing solution for one hour before proceeding with the experiment. […] R., Wright S. E., Aberg […]. 1998, 48: 1012-1018).

learning behavior = assay: Cognitive side effects, Test Protocol 1: T-shaped maze learning; assay type: in vivo, rat; conditions: for Effect on learning behavior (time to choose the correct arm of the T-maze): conscious rats, naive animals
Procedure: Conscious rats are used. The animals are placed at the base of a T-shaped maze with a reward placed in one of the arms of the maze. The effect of the test article on learning is determined by investigating the time it takes in the maze before the rats choose the correct arm of the maze. Experiments were also performed in rats that had been pretreated with phenylephrine to increase the permeability of the blood-brain barrier. Control groups of animals were treated with placebo (vehicle only) or with oxybutynin.

[3] = system: behavioral, neurological, autonomic and toxicity changes; assay: Cognitive side effects, Test Protocol 2: modified Irwin test; assay type: in vivo, mouse; conditions: oral dosing
Procedure: Modified Irwin tests were performed. This is a routine neuro-pharmacological test method. Conscious mice were used. The procedure involved an initial phase of undisturbed observation and a later manipulative phase. An animal's assessment started by observing its undisturbed behavior in housing (body position, locomotor activity, etc.). Thereafter the animal was transferred by tail on the working table for the manipulative phase (spatial locomotion, gait, aggressiveness, etc.). The occurrence of any unexpected state was noted. The responses to test substances were assessed at 60 min, 120 min and 24 hrs after dosing. Animals were dose orally with trospium chloride, some groups of animals had been pretreated with phenylephrine to increase the permeability of the blood-brain barrier. Criteria included behavioral, neurological, autonomic and toxicity changes in comparison with vehicle-treated groups. The results were expressed for each group as the number of animals displaying behavioral changes versus the corresponding control group at each observation time. No statistical analysis was carried out since the lack of statistically significant differences were obvious to the investigator.

[4] = male guinea pig urinary bladder strips

| SMILES | Ki [1] | Kb [2, 4] | Effect on learning behavior (time to choose the correct arm of the T-maze) (learning behavior; ongoing studies) | Kb [2] | also measured |
| --- | --- | --- | --- | --- | --- |
| NC(=O)C(c1ccccc1)(c1ccccc1)[C@@H]1CCN(CCc2ccc3c(c2)CCO3)C1 [Darifenacin] | 39.8 nM | – | – | – | – |
| CCN(CC)CC#CCOC(=O)C(O)(c1ccccc1)C1CCCCC1 (stereo not drawn) [Oxybutynin] | – | 1.5 to 5.5 nM | learning is delayed | – | – |
| Cc1ccc(O)c([C@H](CCN(C(C)C)C(C)C)c2ccccc2)c1 [Tolterodine] | 12.6 nM | – | – | 1.5 to 5.5 nM | – |
| O=C(O[C@H]1C[C@H]2CC[C@@H](C1)[N+]21CCCC1)C(O)(c1ccccc1)c1ccccc1 [Trospium, endo-3-[(hydroxydiphenyl-acetyl)oxy]spiro[8-azoniabicyclo[3.2.1]octane-8,1′-pyrrolidinium]chloride] | – | – | does not influence the learning behavior | 1.5 to 5.5 nM | Further impairment of learning behavior (learning behavior; rats in which a learning disorder has been induced with oxybutynin, ongoing studies): no further impairment of learning behavior; Impairment of learning behavior after phenylephrine pretreatment (learning behavior; rats pretreated with phenylephrine to increase blood-brain barrier permeability): did not uncover any impairment of learning behavior; Behavioral changes in modified Irwin test versus control group ([3]; conscious mice, assessed at 60 min, 120 min and 24 hrs): did not influence the test results; Behavioral changes in modified Irwin test after phenylephrine pretreatment ([3]; mice pretreated with phenylephrine to increase BBB permeation): no significant effects |
| CC(CC(c1ccccc1)c1ccccc1)NC(C)(C)C (stereo not drawn) [terodiline] | – | 1.5 to 5.5 nM | – | – | – |
